Patent publication US10307437B2, “Methods for treatment of vascular endothelial dysfunction using nicotinamide mononucleotide” (The Regents of the University of Colorado, a Body Corporate, priority 2014, dated 2019)
Entries after “also recorded” stand apart in the source; their conditions may differ.

Assays:
[1] = system: C57Bl/6 male mice; experiment: Ex vivo carotid artery vasodilatory responses after NMN supplementation in drinking water
[2] = system: C57Bl/6 male mice; experiment: In vivo aortic pulse wave velocity; conditions: young mice, NMN 240 mg/kg/day, 8 weeks
Source text: (§1) Young (4-8 months) C57Bl/6 male mice were purchased from Charles River and old (26-28 months) C57Bl/6 male mice were obtained from the National Institute on Aging rodent colony. Mice were fed normal rodent chow ad libitum for the duration of the study. After an acclimation period of 2 weeks, the young and old mice were divided into two subgroups: control animals (YC, OC) continued on normal drinking water and the other animals (YNMN, ONMN) received nicotinamide mononucleotide (NMN; Sigma-Aldrich Corp., St. Louis, Mo., USA) supplementation in the drinking water (240 mg/kg/day) for 8 weeks. All mice were housed in an animal care facility at the University of Colorado Boulder on a 12:12 hour light-dark cycle. […]
Aortic pulse wave velocity (aPWV) was measured as described previously (Sindler A. L. et al. 2011, Aging Cell. 10, 429-437; Fleenor B. S. et al. 2012b, Exp Gerontol. 47, 588-594). […] Aortic blood flow velocity was measured with two Doppler probes placed at the transverse aortic arch and abdominal aorta, respectively. Pre-ejection time, the time between the R-wave of the ECG to foot of the Doppler signal, was determined for each site. aPWV was calculated by dividing the distance between the transverse and abdominal probes by the difference in the thoracic and abdominal pre-ejection times.

[3] = system: collagen type I; experiment: Immunohistochemistry of aortic collagen type I; type: in vivo; conditions: old mice, NMN 8 weeks
Source text: (§2) Young (4-8 months) C57Bl/6 male mice were purchased from Charles River and old (26-28 months) C57Bl/6 male mice were obtained from the National Institute on Aging rodent colony. Mice were fed normal rodent chow ad libitum for the duration of the study. After an acclimation period of 2 weeks, the young and old mice were divided into two subgroups: control animals (YC, OC) continued on normal drinking water and the other animals (YNMN, ONMN) received nicotinamide mononucleotide (NMN; Sigma-Aldrich Corp., St. Louis, Mo., USA) supplementation in the drinking water (240 mg/kg/day) for 8 weeks. All mice were housed in an animal care facility at the University of Colorado Boulder on a 12:12 hour light-dark cycle. All animal procedures conformed to the Guide to the Care and Use of Laboratory Animals (NIH publication No. 85-23, revised 1996) and were approved by the UCB Animal Care and Use Committee.
(§3) Immunohistochemistry was used to determine aortic expression of collagen type I and elastin as previously described (Fleenor B. S. et al. 2010 J Physiol. 588, 3971-3982). […] Digital photomicrographs were obtained using a Nikon Eclipse TS100 photomicroscope, and quantification was performed with Image-J Software Version 1.0. The adventitial and medial layers for each sample were quantified together for whole vessel expression. […]

[4] = system: elastin; experiment: Immunohistochemistry of aortic elastin; type: in vivo; conditions: old mice, NMN 8 weeks
Source text: as §2, §3

[5] = system: nitrotyrosine; experiment: Western blot of aortic nitrotyrosine abundance; type: in vivo, mice; conditions: NMN 8 weeks
Source text: as §1
(§4) Aortas were used as a surrogate large elastic artery to provide sufficient tissue for analysis of protein expression by Western blot as described previously (Donato A. J. et al. 2013, J Physiol. 589, 4545-4554; Gano L. B. et al. 2014, Am J Physiol Heart Circ Physiol. 307, H1754-1763). […] Relative intensity was quantified using Image-J Software Version 1.0. […] The ratio of acetylated to total p65 was determined by running two identical Western blots. […] The ratio of acetylated to total p65 was determined for each animal and then normalized to the YC group mean.

[6] = system: SIRT1; experiment: Western blot of aortic SIRT1 expression; type: in vivo, mice; conditions: NMN 8 weeks
Source text: as §1, §4

[7] = system: superoxide; experiment: Aortic superoxide production by EPR spectroscopy; type: in vivo; conditions: young mice, NMN 8 weeks
Source text: as §2
Measurement of superoxide production in the thoracic aorta was performed using electron paramagnetic resonance (EPR) spectroscopy, as previously described (LaRocca T. J. et al. 2013, Mech Ageing Dev. 134, 314-320). […] The signal amplitude was analyzed using an MS300 X-band EPR spectrometer (Magnettech GmbH, Berlin, Germany) with the following settings: centrefield, 3350 G; sweep, 80 G; microwave modulation, 3000 mG, and microwave attenuation, 7 dB. […]

[8] = parameters: species or system mice; conditions: mouse, in vivo
Source text: as §2
Data are presented as mean±SEM in text, figures and tables. All analyses were performed with SPSS. A one-way ANOVA (Analysis of Variance) was used to analyze morphological characteristics, maximum EDD, NO-mediated EDD, EPR spectroscopy, aPWV, elastic modulus, Western blots, and immunohistochemistry. Within-group differences in the maximal EDD dose response to acetylcholine in the absence vs. presence of TEMPOL was determined using two-factor (group×treatment) repeated-measures ANOVA. […]

[9] = target: T1, SIRT1 (Mus musculus, UniProt Q923E4); experiment: SIRT1 activation by ratio of acetylated to total NFκB (p65 subunit) in aorta; type: in vivo; parameters: Aortas were used as a surrogate large elastic artery to provide sufficient tissue for analysis of protein expression by Western blot; from tissue; host or cells: mouse aorta (C57Bl/6); conditions: old mice, NMN 8 weeks
T1 sequence (Q923E4 1-737): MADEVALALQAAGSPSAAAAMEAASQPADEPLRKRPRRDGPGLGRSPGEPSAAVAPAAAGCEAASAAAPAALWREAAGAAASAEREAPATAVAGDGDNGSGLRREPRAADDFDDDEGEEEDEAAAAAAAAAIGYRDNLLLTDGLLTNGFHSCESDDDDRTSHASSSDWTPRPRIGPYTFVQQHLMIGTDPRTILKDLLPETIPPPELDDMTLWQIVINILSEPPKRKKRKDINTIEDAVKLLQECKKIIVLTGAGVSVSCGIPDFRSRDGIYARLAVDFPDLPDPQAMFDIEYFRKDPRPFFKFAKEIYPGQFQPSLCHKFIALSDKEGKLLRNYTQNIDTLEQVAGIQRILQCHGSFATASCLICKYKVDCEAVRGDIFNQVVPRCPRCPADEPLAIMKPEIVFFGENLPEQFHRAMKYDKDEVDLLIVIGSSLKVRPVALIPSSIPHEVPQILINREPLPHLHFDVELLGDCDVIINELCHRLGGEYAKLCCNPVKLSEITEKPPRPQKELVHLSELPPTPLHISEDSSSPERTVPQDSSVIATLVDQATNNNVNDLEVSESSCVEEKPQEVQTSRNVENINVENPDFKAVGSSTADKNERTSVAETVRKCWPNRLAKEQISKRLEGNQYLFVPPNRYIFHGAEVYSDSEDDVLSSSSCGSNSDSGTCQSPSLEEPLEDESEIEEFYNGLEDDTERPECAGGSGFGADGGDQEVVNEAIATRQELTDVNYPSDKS
Source text: as §1, §4

[10] = target: T1, SIRT1; conditions: in part by reducing oxidative stress (Gano et al. 2014); cited from earlier work
[11] = system: carotid arteries; experiment: Ex vivo incubation of isolated carotid arteries with TEMPOL, EDD to acetylcholine; parameters: species or system mice; conditions: other groups (YC, YNMN, ONMN); TEMPOL 0.1 mM, 1 hour incubation
Description: EDD and endothelium-independent dilation were determined ex vivo in isolated carotid arteries as previously described (Rippe C. et al. 2010, Aging Cell. 9, 304-312; Sindler A. L. et al. 2011, Aging Cell. 10, 429-437). Mice were anesthetized using isoflurane and euthanized by exsanguination via cardiac puncture. The carotid arteries were carefully excised, cannulated onto glass micropipette tips, and secured with nylon (11-0) sutures in individual myograph chambers (DMT Inc., Ann Arbor, Mich., USA) containing buffered physiological saline solutions. The arteries were pressurized to 50 mmHg at 37° C. and were allowed to equilibrate for 45 minutes before experimentation. After submaximal preconstriction with phenylephrine (2 μM), increases in luminal diameter in response to acetylcholine (ACh: 1×10^−9-1×10^−4 M; Sigma-Aldrich Corp.) with and without co-administration of the NO synthase inhibitor, L-NAME, 0.1 mM, 30 minute incubation; (Sigma-Aldrich Corp.) or the superoxide dismutase mimetic 4-Hydroxy-2,2,6,6-tetramethylpiperidine-1-oxyl (TEMPOL, 0.1 mM, 1 hour incubation; Sigma-Aldrich Corp.) were determined. Endothelium-independent dilation was determined by vasodilation in response to the NO donor sodium nitroprusside (SNP: […]-1×10^−4 M; Sigma-Aldrich Corp.).
All dose-response data are presented as percent dilation, i.e. FIGS. 1A, 1C and 2A. […]

NC(=O)c1ccc[n+]([C@@H]2O[C@H](COP(=O)([O-])O)[C@@H](O)[C@H]2O)c1 [NMN, nicotinamide mononucleotide]
Endothelium-independent dilation to sodium nitroprusside ([1]; young and old mice, NMN-treated vs controls): not significantly different; also recorded: did not influence | EDD and NO-mediated dilation ([1]; young mice, NMN 240 mg/kg/day in drinking water, 8 weeks): had no effect | aortic pulse wave velocity (aPWV) [2]: no significant effect | arterial collagen type I expression [3]: reversed; also recorded: reduced arterial collagen type I to levels of young mice | arterial elastin expression [4]: partially increased; also recorded: increased elastin to levels not significantly different from young mice | aortic nitrotyrosine abundance ([5]; old mice): decreased; also recorded: markedly reduced | aortic nitrotyrosine abundance ([5]; young mice): no significant effect | aortic SIRT1 protein expression ([6]; old mice): tended to increase | aortic SIRT1 protein expression ([6]; young mice): increased | aortic superoxide production [7]: no significant effect | body mass across the four groups [8]: no significant differences | vascular SIRT1 activity (ratio of acetylated to total p65 subunit of NFκB) [9]: restored

O=C(Nc1ccccc1-c1cn2c(CN3CCNCC3)csc2n1)c1cnc2ccccc2n1 [SRT1720]
EDD in old mice [10]: improves

CC1(C)CC(O)CC(C)(C)N1[O] [TEMPOL, 4-hydroxy-2,2,6,6-tetramethylpiperidin-1-oxyl]
carotid artery EDD in presence of TEMPOL [11]: no significant effect; also recorded: no significant improvement
